Assay results reported in US20220048900A1, “AMORPHOUS SPARSENTAN COMPOSITIONS” (Travere Therapuetics, Inc., priority 2018, published 2022).

Experiments:
[1] = Pharmacokinetics of modified release sparsentan formulations, PO (Example 5); type: in vivo, male Sprague Dawley rats; conditions: male rats
Protocol: Sparsentan was administered orally (“PO”) to male Sprague Dawley rats in a single or twice-a-day dose, as described in Table 14. Formulations were administered in a vehicle comprised of a mixture of 0.5% methylcellulose 4000 cps and 0.25% Tween 80 in distilled water. All animals were fasted overnight through approximately 4 hours post-dose. Animals receiving Formulation #2 were not fasted for the second dose administration.
Blood (approximately 0.3 mL) was collected from a jugular vein from each animal via syringe and needle and transferred into tubes containing K2EDTA at approximately 0.5, 1, 2, 4, 8 (prior to second dose for Group 2), 10, 12, and 24 hours post-dose. Another vein may be used as an alternative blood collection site. For each group, the following PK parameters were determined: maximum observed plasma concentration (Cmax), time of maximum observed plasma concentration (Tmax), and area under the plasma concentration-time curve (AUC). AUC from time 0 to 24 hours (AUC0-24 hr) was calculated for all groups with at least three consecutive quantifiable concentrations.

[2] = Pharmacokinetics of crystalline and amorphous sparsentan formulations, single IV or PO dose (Example 4); type: in vivo, male Sprague Dawley rats; conditions: for % F (dose-normalized AUC0-24 hr PO/IV): vs IV crystalline sparsentan 1 mg/kg
Protocol: Sparsentan was administered intravenously as a bolus injection (“IV”) or orally (“PO”) to male Sprague Dawley rats in a single dose, as described in Table 11. Four sparsentan formulations were tested: crystalline sparsentan (“Crystalline Sp”); spray dried dispersion particles formed from a 50:50 mixture of sparsentan and polyvinylpyrrolidone-vinyl acetate copolymer (“50:50 Sp:PVP-VA SDD”); spray dried dispersion particles formed from a 50:50 mixture of sparsentan and hydroxypropyl methylcellulose (“50:50 Sp:HPMC E3LV SDD”); and spray dried dispersion particles formed from a 50:50 mixture of sparsentan and hypromellose acetate succinate HG (“50:50 Sp: HPMCAS-H SDD”). Formulations were administered in a vehicle comprised of either a mixture of PEG400:ethanol:sterile water (30:30:40 v/v/v) (“A”) or a mixture of 0.5% Methocel A4M, 0.1% Tween-80 in purified water (“B”).
Blood samples were collected at 0.083 (Group 1 only), 0.25, 0.5, 1, 2, 4, 6, 8, and 24 hours post dose. Blood was collected into tubes containing K2EDTA and centrifuged, and resulting plasma samples were obtained. For each group, the following PK parameters were determined: maximum observed plasma concentration (Cmax), time of maximum observed plasma concentration (Tmax), and area under the plasma concentration-time curve (AUC). AUC from time 0 to 24 hours (AUC0-24 hr) was calculated for all groups with at least three consecutive quantifiable concentrations. For the IV dose, extrapolated null concentration (C0) was calculated and used as Cmax at time zero. For the oral doses, extrapolated value at time zero was assigned as 0.0 ng/m L. The AUC based on actual collection time point was from 0.083 to 24 hours for IV group and from 0.25 to 24 hour for PO group. Absolute bioavailability evaluation was determined as “% F” between single dose IV and oral dose, calculated as follows:
% F=Mean Dose Normalized AUC0-24 hr(PO)/Mean Dose Normalized AUC0-24 hr (IV).

[3] = MDSC of sparsentan and spray dried sparsentan dispersions; type: physicochemical
Protocol: MDSC was performed using a TA Instruments Q200 differential scanning calorimeter equipped with a TA instruments Refrigerated Cooling System 90. MDSC was used to measure glass transition temperature (Tg), cold crystallization (Tc), defined as a crystallization event at a temperature lower than the melt temperature, and melting temperature (Tm). Samples were placed in non-hermetic aluminum pans and heated at a constant rate of 2.0° C./min over a 25-200° C. temperature range. The system was purged by nitrogen flow at 50 mL/min to ensure inert atmosphere through the course of measurement.
Thermal properties, melting temperature (Tm), glass transition temperature (Tg), and crystallization temperature (Tc) of sparsentan was measured by MDSC. The Tg was measured via a melt-quench technique, heating past its melting temperature and rapidly cooling to trap the molten material in an amorphous state. The resulting sample was analyzed by MDSC and a Tg of 42° C. was determined (FIG. 4).

| Cmax ([1]; Sprague Dawley, rat, 60 mg/kg/day, plasma, dose mg/kg/day #1 60, #2 60 (30 x 2, from first dose), #3 38, #4 28.8, #5 30, #6 28.6) [µg/mL] | AUC ([1]; Sprague Dawley, rat, 60 mg/kg/day, plasma, dose mg/kg/day #1 60, #2 60 (total dose), #3 38, #4 28.8, #5 30, #6 28.6, read-out: AUC0.5-24 hr) [µg·h/mL] | Tmax ([1]; Sprague Dawley, rat, plasma, 60 mg/kg/day, median, dose mg/kg/day #1 60, #2 60 (30 x 2, from first dose), #3 38, #4 28.8, #5 30, #6 28.6) [h] | Cmax/Dose ([1]; dose-normalized, #2 from first dose) [kg·ng/mL/mg] | AUC0.5-24 hr/Dose ([1]; dose-normalized, #2 from the total dose) [kg·ng·h/mL/mg] | % F (dose-normalized AUC0-24 hr PO/IV) ([2]; Group 2: PO 20 mg/kg) [%] | % F (dose-normalized AUC0-24 hr PO/IV) ([2]; Group 3: PO 60 mg/kg) [%] | Cmax increase with increasing dose (dose proportionality) ([2]; oral doses 20 and 60 mg/kg, male rats) | Tg ([3]; melt-quench technique) [°C] | physical stability ([3]; modulated ramp up to 200° C.) | Compound |
| --- | --- | --- | --- | --- | --- | --- | --- | --- | --- | --- |
| 54.6 | 311 | 4 | 909 | 5189 | 50.1 | 55.2 | approximately dose proportional | – | – | CCCCC1=NC2(CCCC2)C(=O)N1Cc1ccc(-c2ccccc2S(=O)(=O)Nc2noc(C)c2C)c(COCC)c1 [crystalline sparsentan, 2-[4-[(2-butyl-4-oxo-1,3-diazaspiro[4.4]non-1-en-3-yl)methyl]-2-(ethoxymethyl)phenyl]-N-(4,5-dimethyl-1,2-oxazol-3-yl)benzenesulfonamide] |
| – | – | – | – | – | – | – | – | 42 | stable as a neat amorphous form | CCCCC1=NC2(CCCC2)C(=O)N1Cc1ccc(-c2ccccc2S(=O)(=O)Nc2noc(C)c2C)c(COCC)c1 [Sparsentan, 2-[4-[(2-butyl-4-oxo-1,3-diazaspiro[4.4]non-1-en-3-yl)methyl]-2-(ethoxymethyl)phenyl]-N-(4,5-dimethyl-1,2-oxazol-3-yl)benzenesulfonamide] |
